The text below walks through data of patent US11655252B2, “Aminopyrimidinyl derivatives” (Pfizer Inc., priority 2020, dated 2023).

Each structure is given as a SMILES string.

One data set deals with JAK1 (Homo sapiens (Human), UniProt P23458). As to the kind of experiment: JAK Family Caliper Enzyme Assay (JAK1). Type of data set: biochemical. The settings on record: recombinant human kinase domain, 1 mM ATP. On the procedure:
(§1) JAK Family Caliper Enzyme Assay
(§2) Compounds of the invention were evaluated by in vitro methods to determine their respective ability to inhibit the JAK kinases (TYK2, JAK1, JAK2, JAK3). Inhibitory activity was determined by using a microfluidic assay (LabChip 3000™ mobility shift technology, Caliper Life Science) to monitor phosphorylation of a synthetic peptide by the recombinant human kinase domain of each of the four members of the JAK family, JAK1, JAK2, JAK3 and TYK2. Reaction mixtures contained 1 μM of a fluorescently labeled synthetic peptide, a concentration less than the apparent Km, and 1 mM ATP.
(§3) Compounds in DMSO solution were added to a 384-well plate. Reaction mixtures contained 10 mM HEPES, pH 7.4, 10 mM MgCl2, 0.01% BSA, 0.0005% Tween 20™, 1 mM ATP and 1 μM peptide substrate. The JAK1 and TYK2 assays contained 1 μM of the IRStide peptide (5FAM-KKSRGDYMTMQID) and the JAK2 and JAK3 assays contained 1 μM of the JAKtide peptide (FITC-KGGEEEEYFELVKK). The assays were initiated by the addition of 20 nM JAK1, 1 nM JAK2, 1 nM JAK or 1 nM TYK2 enzyme and were incubated at room temperature for three hours for JAK1, 60 minutes for JAK2, 75 minutes for JAK3 or 135 minutes for TYK2. Enzyme concentrations and incubation times were optimized for each new enzyme preps and were modified slightly over time to ensure 20% to 30% phosphorylation. The assays were stopped with 15 μL of 180 mM HEPES, pH 7.4, 20 mM EDTA, and 0.2% Coating Reagent 3. The assay plates were placed on a Caliper Life Science LC3000 instrument, and each well was sampled using appropriate separation conditions to measure the unphosphorylated and phosphorylated peptide.
(§4) The data was collected using the HTS Well Analyzer software from Caliper Life Sciences. The data output for data analysis is the percent product converted calculated on peak height (Equation 1). % product converted=100*((product)/(product+substrate)) Equation 1: […]
(§5) The percent effect at each compound concentration was calculated based on the positive and negative control well contained within each assay plate (Equation 2). […] The negative control wells contained DMSO alone (at the same concentration as the compound wells) that was used to set the baseline activity in the assay (i.e., uninhibited JAK1, JAK2, JAK3 or TYK2). % effect=100*((sample well−negative control)/(positive control−negative control)) Equation 2: […]
(§6) The percent effect was plotted against the compound concentration compound. An unconstrained sigmoid curve was fitted using a 4 parameter logistic model and the compound concentration required for 50% inhibition (IC50) was determined (Equation 3). y=((max−min)/(1+((x/IC50)^s)))+min Equation 3: […]

The subject of data set [1] is CXCL10 biomarker in Th2 stimulated ex vivo human skin. As to the kind of experiment: Biomarker Modulation in Th2 Stimulated Ex Vivo Human Skin Assay. In kind it is cell-based. The settings on record: 1% w/w formulation applied topically, qPCR. On the procedure: Biomarker Modulation in Th2 Stimulated Ex Vivo Human Skin Assay Compounds of this invention were assessed for their ability to modulate CXCL10 biomarker in Th2 stimulated ex vivo human skin following topical application. […] Freshly excised human skin from surgery specimens was cut with a dermatome to 750 μm thickness and mounted in a 7 mm static Franz cell for tissue culture such that the upper surface of the skin was exposed to air in the Franz cell donor chamber, and the bottom (dermis) was exposed to Cornification medium. A total of two skin donors were used (n=6 per treatment per donor). Incubations were carried out in a standard tissue culture incubator. Compound was dissolved in the indicated formulation at a concentration of 1% w/w and added apically to the skin at 10 μL per sample (approximately 18 μL per cm^2) at 4-6 replicates per donor. After 16 h media was replaced with stimulation cocktail containing anti-CD3 mAb, anti-CD28 mAb, IL-2, IL-4, IL-33 and TSLP. Incubation was continued for additional 24 hr at 37° C. Then skin was harvested, treated with RNALater solution and processed for RNA extraction and qPCR that was run in duplicates. MMP12, CCL26, CXCL10 and Filaggrin may be measured. Results for each sample were normalized to its own GAPDH internal standard which was not appreciably affected by stimulus or compound. Fold change was normalized to untreated sample.
(In general: Real-time PCR tracks product formation cycle by cycle.)

The next data set concerns the target TYK2 (Homo sapiens (Human), UniProt P29597). As to the kind of experiment: JAK Family Caliper Enzyme Assay (TYK2). In kind it is biochemical. As to conditions: recombinant human kinase domain, 1 mM ATP. On the procedure: as §1, §2, §3, §4, §5, §6
Data set [2] is described as follows: In Vitro Human Hepatocyte Clearance Assay. Type of data set: in vitro ADME. As to conditions: cryopreserved human hepatocytes in suspension, 0.5 million cells/mL, 1 μM test compound, read-out: HHEP CLint, app (μL/min/million cells). Here is the method: In Vitro Human Hepatocyte Clearance Assay A high-throughput human hepatocyte substrate-depletion assay was performed in a 384-well formatted as described previously [Di et al., Eur. J. Med. Chem., 2012, 57, 441]. Briefly, the cryopreserved human hepatocytes were thawed and resuspended in Williams' E medium supplemented with HEPES and Na2CO3. The cells were counted using the trypan blue exclusion method. Test compounds were added to suspended human hepatocytes in Williams' E medium buffer and incubated at 37° C. in a humidified CO2 incubator (75% relative humidity, 5% CO2/air) for 4 hours. The final incubation contained 0.5 million cells/mL and 1 μM test compound in 15 μL total volume with 0.1% DMSO. At various time points (0, 3, 10, 30, 60, 120, and 240 minutes), an aliquot of the sample was taken and quenched with cold acetonitrile containing internal standard. The samples were centrifuged at 3000 rpm for 10 minutes at 4° C., and the supernatants were transferred to new plates, which were sealed before performing LC-MS/MS analysis. The apparent metabolic intrinsic clearance (CLint, met, app) was determined based on the substrate-depletion half-life estimated from the ratio of the peak area response of each compound to that of the internal standard, as described earlier [Di et al., Eur. J. Med. Chem., 2012, 57, 441].

The subject of data set [3] is interferon alpha signalling (TYK2 and JAK1), pSTAT3 in human whole blood lymphocytes. As to the kind of experiment: HWB INF Alpha Induced STAT3 Phosphorylation Assay. Type of data set: cell-based. The settings on record: Lymphocyte, IFN alpha 5000 U/ml, flow cytometry. Here is the method: HWB INF Alpha Induced STAT3 Phosphorylation Assay
Compounds of this invention were assessed for their ability to inhibit interferon alpha signalling in a human whole blood flow cytometry assay. Interferon alpha signals through TYK2 and JAK1. Test articles were prepared as 30 mM stocks in 100% DMSO, and then diluted to 10 mM. An 11-point 3 dilution series was created in DMSO with a top concentration of […]. Further dilution was done by adding 4 μL of the above test article solutions into 96 μL of PBS with a top concentration of 400 μM. Human whole blood (HWB) was collected from healthy donors via vein puncture into Vacutainer™ collection tubes containing sodium heparin (Catalog No. 366480, Becton Dickinson, Franklin Lakes, N.J.). Blood was warmed to 37° C. prior to use. […]
Samples were transferred to 96-well U bottom plates (Falcon #353077) and flow cytometric analysis was performed on an LSRFortessa equipped with a HTS plate loader (BD Biosciences). […] Background fluorescence was defined using unstimulated cells and a gate was placed at the foot of the peak to include ˜0.5% gated population. […] Relative fluorescence unit (RFU), which measures the level of phospho STAT, was calculated by multiplying the percent positive population and its mean fluorescence. […] Inhibition curves and IC50 values were determined using the Prism version 7 software (GraphPad, La Jolla, Calif.).

The target in another data set is JAK3 (Homo sapiens (Human), UniProt P52333). As to the kind of experiment: JAK Family Caliper Enzyme Assay (JAK3). As to conditions: recombinant human kinase domain, 1 mM ATP. In kind it is biochemical. On the procedure: as §1, §2, §3, §4
Sequence of JAK3 (P52333 822-1111): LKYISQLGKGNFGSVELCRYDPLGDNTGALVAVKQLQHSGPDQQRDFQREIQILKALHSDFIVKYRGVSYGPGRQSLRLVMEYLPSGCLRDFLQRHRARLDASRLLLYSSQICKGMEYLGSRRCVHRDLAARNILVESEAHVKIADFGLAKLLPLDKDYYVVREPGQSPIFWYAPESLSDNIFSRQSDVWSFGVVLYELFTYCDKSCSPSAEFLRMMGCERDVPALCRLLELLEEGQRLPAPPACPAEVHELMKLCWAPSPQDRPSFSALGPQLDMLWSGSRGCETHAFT
The percent effect at each compound concentration was calculated based on the positive and negative control well contained within each assay plate (Equation 2). […]

Another data set has as its target JAK2 (Homo sapiens (Human), UniProt O60674). As to the kind of experiment: JAK Family Caliper Enzyme Assay (JAK2). In kind it is biochemical. The settings on record: recombinant human kinase domain, 1 mM ATP. Here is the method:
as §1, §2, §3, §4, §5, §6

Sequence of JAK1 (P23458 875-1153): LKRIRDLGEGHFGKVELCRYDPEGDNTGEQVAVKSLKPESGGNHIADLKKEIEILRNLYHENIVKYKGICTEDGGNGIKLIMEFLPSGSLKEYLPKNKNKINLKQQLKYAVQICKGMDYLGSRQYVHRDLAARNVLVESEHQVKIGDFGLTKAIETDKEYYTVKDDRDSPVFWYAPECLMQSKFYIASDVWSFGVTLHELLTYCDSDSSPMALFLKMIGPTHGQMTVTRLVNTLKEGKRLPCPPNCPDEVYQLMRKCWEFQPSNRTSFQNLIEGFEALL
Sequence of TYK2 (P29597 897-1176): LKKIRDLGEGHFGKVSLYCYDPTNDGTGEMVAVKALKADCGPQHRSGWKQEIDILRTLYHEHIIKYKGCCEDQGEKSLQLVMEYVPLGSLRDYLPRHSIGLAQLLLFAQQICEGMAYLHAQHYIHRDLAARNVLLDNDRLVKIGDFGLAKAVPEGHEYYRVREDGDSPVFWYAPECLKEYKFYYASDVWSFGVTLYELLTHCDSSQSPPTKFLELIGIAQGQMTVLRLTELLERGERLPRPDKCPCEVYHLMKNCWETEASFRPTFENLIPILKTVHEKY
Sequence of JAK2 (O60674 849-1124): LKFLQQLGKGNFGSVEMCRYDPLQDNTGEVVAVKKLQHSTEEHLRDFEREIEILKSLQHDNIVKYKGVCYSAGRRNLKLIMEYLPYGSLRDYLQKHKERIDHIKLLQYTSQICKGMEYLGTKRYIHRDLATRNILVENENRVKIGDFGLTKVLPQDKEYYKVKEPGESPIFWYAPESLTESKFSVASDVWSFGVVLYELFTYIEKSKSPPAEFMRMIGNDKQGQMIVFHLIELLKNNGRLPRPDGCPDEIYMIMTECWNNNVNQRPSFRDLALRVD

Turning to `CCCn1cc(Nc2nccc(N3C[C@H]4CC[C@@H](C3)N4C(=O)[C@@H]3CC3(F)F)n2)cn1` [IA, ((S)-2,2-Difluorocyclopropyl)((1R,5S)-3-(2-((1-propyl-1H-pyrazol-4-yl)amino)pyrimidin-4-yl)-3,8-diazabicyclo[3.2.1]octan-8-yl)methanone], the half-inhibitory concentration (IC50) (in general, the concentration needed to halve the response being measured) is 33 nM at JAK1; 37 nM on TYK2; 0.066 µM in data set [3]; over 9580 nM on JAK3; 80 nM at JAK2. In addition, in data set [1], the “% inhibition CXCL10” value is recorded as 94.2%. Further, the hepatocyte CLint at 1 μM in data set [2] is 8.6 µL/min/1e6 cells.

Take `O=C([C@@H]1CC1(F)F)N1[C@@H]2CC[C@H]1CN(c1ccnc(Nc3cnn(CCCO)c3)n1)C2` [ID]: the IC50 at JAK1 was 47 nM; on TYK2 it was 30 nM; on JAK3, over 9280 nM; on JAK2, 81 nM.

As for `C[C@@H](O)Cn1cc(Nc2nccc(N3C[C@H]4CC[C@@H](C3)N4C(=O)[C@@H]3CC3(F)F)n2)cn1` [IB, ((S)-2,2-Difluorocyclopropyl)((1R,5S)-3-(2-((1-((R)-2-hydroxypropyl)-1H-pyrazol-4-yl)amino)pyrimidin-4-yl)-3,8-diazabicyclo[3.2.1]octan-8-yl)methanone], the IC50 at JAK1 is 59 nM; on TYK2 it was 82 nM; at JAK3 it was over 10000 nM; at JAK2, 223 nM.

Consider `Cn1cc(Nc2nccc(N3C[C@H]4CC[C@@H](C3)N4C(=O)[C@@H]3CC3(F)F)n2)cn1` [II, ((S)-2,2-difluorocyclopropyl)-((1R,5S)-3-(2-((1-methyl-1H-pyrazol-4-yl)amino)pyrimidin-4-yl)-3,8-diazabicyclo[3.2.1]octan-8-yl)methanone, reference compound], for which the “% inhibition CXCL10” value in data set [1] was 72.4%. For the same compound, in data set [2], the hepatocyte CLint at 1 μM was under 0.6 µL/min/1e6 cells.

In the case of `C[C@H](O)Cn1cc(Nc2nccc(N3C[C@H]4CC[C@@H](C3)N4C(=O)[C@@H]3CC3(F)F)n2)cn1` [IC, ((S)-2,2-Difluorocyclopropyl)((1R,5S)-3-(2-((1-((S)-2-hydroxypropyl)-1H-pyrazol-4-yl)amino)pyrimidin-4-yl)-3,8-diazabicyclo[3.2.1]octan-8-yl)methanone], the IC50 was found to be 44 nM on JAK1, 65 nM on TYK2 and 139 nM on JAK2.
